Measured values as given in the NIST ThermoML archive (doi:10.1021/je501026m).
Numbers after ± are expanded uncertainties.

Conditions: Crystal; DTA

C[n+]1ccn(CCOCCn2cc[n+](C)c2)c1.F[P-](F)(F)(F)(F)F.F[P-](F)(F)(F)(F)F showed a Normal melting temperature of 98.00 ± 1 °C.
